The text below walks through data of patent US20190111026A1, “ANTI-TRITRICHOMONAS AGENT” (Pola Pharma Inc., priority 2016, published 2019).

Values after ≈ are worked out from the molar mass of the structure shown.

Data set [1] can be described thus: Particle size by laser diffraction method (Microtrac MT3000). The data set is classed as physicochemical. Conditions: dispersion medium: water. The protocol: (§1) Luliconazole was ground with a mortar to change the particle size, and the anti-Tritrichomonas activity of solid luliconazole was studied. More specifically, luliconazole having a variety of particle sizes was added in an amount of 5 mg to 5 mL of Diamond's media supplemented with 10% adult bovine serum, and 10,000 cells of Tritrichomonas mobilensis were inoculated on the media, cultured at 35° C. for 24 hours, and then measured for the number of viable T. mobilensis cells by use of a Neubauer hemocytometer. Luliconazole was not added to the control group. The growth inhibition rate was calculated as follows: [(the number of viable cells of the control group−the number of viable cells of the sample group)/the number of viable cells of the control group]×100. […] It is noted that the particle size was measured by a laser diffraction method (Microtrac MT3000, manufactured by NIKKISO CO., LTD; dispersion medium: water).

The subject of data set [2] is Tritrichomonas mobilensis. The experiment in a line: Anti-Tritrichomonas activity of solid ground luliconazole (viable count, growth inhibition rate). In kind it is cell-based. Conditions: 35° C., 24 hours; for Viable Cell Count Ave.: 5 mg solid in 5 mL Diamond's medium with 10% adult bovine serum, 10,000 cells inoculated; for Growth Inhibition Rate: 5 mg solid in 5 mL medium, 10,000 cells, [(control-sample)/control]×100. The protocol: It is noted that the growth inhibition rate is calculated as follows: [(the number of viable cells of the control group−the number of viable cells of the sample group)/the number of viable cells of the control group]×100. It is preferred that the anti-Tritrichomonas effect is determined 24 to 72 hours after the inoculation of 10,000 cells of Tritrichomonas protozoa on 5 mL of liquid medium in which 5 mg of sample luliconazole is added. As the liquid medium, it is preferred to use Diamond's medium with 5% to 15% adult bovine serum added as desired.
as §1

In data set [3] the test system is Tritrichomonas mobilensis (T. mobilensis: USA: M776 c12). The experiment in a line: Activity of luliconazole in solution against Tritrichomonas mobilensis (viable count, Neubauer hemocytometer). Conditions: luliconazole dissolved in methanol, Diamond's medium with 10% adult bovine serum, 35° C., 24 hours. The data set is classed as cell-based. As to the method:
The activity of luliconazole against Tritrichomonas mobilensis of the genus Tritrichomonas (T. mobilensis: USA: M776 c12) was studied. Luliconazole as synthesized according to the method disclosed in the above JP 60-218387 A was used as a sample. More specifically, Tritrichomonas protozoa were cultured on Diamond's medium with 10% adult bovine serum added. Luliconazole was dissolved in 100 μL of methanol to obtain solutions having a variety concentrations of luliconazole. The cultures were then inoculated on 5 mL of 10% adult bovine serum-added Diamond's media in which the solutions were added, cultured at 35° C. for 24 hours, and then measured for the number of viable Tritrichomonas protozoa by use of a Neubauer hemocytometer. MIC and IC50 were obtained from the number of viable protozoa. MIC was 50 μg/mL and IC50 was 10. 1 μg/mL.

For data set [4] the following is noted: from Lulicon Cream Pharmaceutical Product Interview Form 2006; cited from earlier work.
Data set [5] deals with Tritrichomonas mobilensis. The experiment in a line: Anti-Tritrichomonas effect of supernatant from medium stored with ground luliconazole. The note with it: supernatant of medium stored with 5 mg ground luliconazole at 35° C. for 24 hours. The data set is classed as cell-based. The protocol: In order to confirm the influence of luliconazole which was eluted in the solutions in Example 2, 7 minute-ground luliconazole was added in an amount of 5 mg to Diamond's medium with 10% adult bovine serum added, and stored at 35° C. for 24 hours, and the supernatant was obtained from the Diamond's medium. Tritrichomonas mobilensis was inoculated on the supernatant, cultured at 35° C. for 24 hours and measured for the number of viable cells by use of a Neubauer hemocytometer. Luliconazole was not added to the control group. The result from the control group was 973,333±23,094 while the result from the supernatant was 1,000,000±144,222. […] In this regard as well, it is clear that luliconazole can control effectively Tritrichomonas protozoa in the intestinal tract.

Usually IC50 stands for the concentration at which inhibition is half-maximal. Higher therefore signals a need for much substance. The term MIC denotes the lowest concentration that inhibits growth of the organism. Low values mean inhibition by little substance, high ones a need for much substance.

Turning to `N#C/C(=C1/SC[C@@H](c2ccc(Cl)cc2Cl)S1)n1ccnc1` [6-minute ground luliconazole, luliconazole], the D50 in data set [1] is 96.6 μm. Besides, in data set [2], the “Viable Cell Count Ave.” value is given as 20,000 and the “Growth Inhibition Rate” value was 88.7.

In the case of `N#C/C(=C1/SC[C@@H](c2ccc(Cl)cc2Cl)S1)n1ccnc1` [5-minute ground luliconazole, luliconazole], the D50 in data set [1] is 114.4 μm. Besides, in data set [2], the “Viable Cell Count Ave.” value is recorded as 43,333 and the “Growth Inhibition Rate” value turned out to be 75.5.

As for `N#C/C(=C1/SC[C@@H](c2ccc(Cl)cc2Cl)S1)n1ccnc1` [Luliconazole, luliconazole], in data set [3], the IC50 was 10.1 µg/mL (≈ 28.5 µM) and the MIC was 50 µg/mL (≈ 141 µM). The solubility in water result in data set [4] is “insoluble in water”.

In turn, `N#C/C(=C1/SC[C@@H](c2ccc(Cl)cc2Cl)S1)n1ccnc1` [7-minute ground luliconazole, luliconazole] returned a D50 in data set [1] of 84.7 μm. Moreover, the “anti-Tritrichomonas effect of supernatant” value in data set [5] was “did not have anti-Tritrichomonas effect”. Further, the “number of viable cells” value in data set [5] (culture 35° C., 24 hours, control 973,333±23,094) is recorded as 1,000,000±144,222. For the same compound, in data set [2], the “Viable Cell Count Ave.” value is on record as 20,000 and the “Growth Inhibition Rate” value was determined as 88.7.

`N#C/C(=C1/SC[C@@H](c2ccc(Cl)cc2Cl)S1)n1ccnc1` [8-minute ground luliconazole, luliconazole] registered a D50 in data set [1] of 78.5 μm. In addition, in data set [2], the “Viable Cell Count Ave.” value was 26,667 and the “Growth Inhibition Rate” value is listed as 84.9.
